Laboratory results reported in patent publication US20210078917A1, “FUNGICIDAL FERTILIZER COMPOSITION COMPRISING POTASSIUM PHOSPHITE AND GAMMA-POLY-GLUTAMIC ACID” (JIANGSU HUIFENG BIO AGRICULTURE CO., LTD., priority 2018, published 2021).

Test system: soybean
Assay: Yield increase test of soybean
Type: in vivo
Settings: for Yield (667 M^2): per 667 M^2
Method: Fertilization method: The fertilizer was co-applied with other fertilizers. The yield, quality and control effect on disease on soybean were determined.

Substance: γ-poly-glutamic acid
- Branches (15 g/mu): 17.5 count
- Increase rate (branches) (15 g/mu): 1.2%
- Increase rate (weight per 100 grains) (15 g/mu): 2.8%
- Increase rate (yield) (15 g/mu): 2.9%
- Weight per 100 grains (15 g/mu): 25.43 g
- Yield (667 M^2) (15 g/mu): 181.7
- Branches (50 g/mu): 17.8 count
- Increase rate (branches) (50 g/mu): 2.7%
- Increase rate (weight per 100 grains) (50 g/mu): 3.5%
- Increase rate (yield) (50 g/mu): 4.5%
- Weight per 100 grains (50 g/mu): 25.61 g
- Yield (667 M^2) (50 g/mu): 184.5
- Branches (100 g/mu): 18.0 count
- Increase rate (branches) (100 g/mu): 4.1%
- Increase rate (weight per 100 grains) (100 g/mu): 4.1%
- Increase rate (yield) (100 g/mu): 5.7%
- Weight per 100 grains (100 g/mu): 25.75 g
- Yield (667 M^2) (100 g/mu): 186.7
- Branches (300 g/mu): 18.1 count
- Increase rate (branches) (300 g/mu): 4.6%
- Increase rate (weight per 100 grains) (300 g/mu): 5.3%
- Increase rate (yield) (300 g/mu): 7.3%
- Weight per 100 grains (300 g/mu): 26.05 g
- Yield (667 M^2) (300 g/mu): 189.5
- Branches (600 g/mu): 18.3 count
- Increase rate (branches) (600 g/mu): 5.7%
- Increase rate (weight per 100 grains) (600 g/mu): 6.8%
- Increase rate (yield) (600 g/mu): 10.5%
- Weight per 100 grains (600 g/mu): 26.42 g
- Yield (667 M^2) (600 g/mu): 195.1
